Results reported in patent US20230183219A1, “CONDENSED SUBSTITUTED HYDROPYRROLES AS ANTAGONISTS OF THE MUSCARINIC ACETYLCHOLINE RECEPTOR M4” (Vanderbilt University, priority 2020, published 2023).

How the values were obtained:
Human M4 = molecular target: T1, Human M4 (Homo sapiens, UniProt P08173); assay: mAChR M4 cell-based functional assay (calcium flux, decrease of EC80 acetylcholine response); conditions: for remaining activity at 30 µM: % ACh maximum at 30 μM, read-out: Human M4 Emin; for IC50: M4/Gqi5/CHO-K1 cells, decrease of response to EC80 acetylcholine
T1 construct: Human or rat M4 cDNA, along with the chimeric G protein Gqi5, were transfected into Chinese hamster ovary (CHO-K1) cells; expressed in transfected cells; host or cells: CHO-K1 (Chinese hamster ovary, ATCC), stably co-expressing Gqi5
T1 sequence (P08173 1-479): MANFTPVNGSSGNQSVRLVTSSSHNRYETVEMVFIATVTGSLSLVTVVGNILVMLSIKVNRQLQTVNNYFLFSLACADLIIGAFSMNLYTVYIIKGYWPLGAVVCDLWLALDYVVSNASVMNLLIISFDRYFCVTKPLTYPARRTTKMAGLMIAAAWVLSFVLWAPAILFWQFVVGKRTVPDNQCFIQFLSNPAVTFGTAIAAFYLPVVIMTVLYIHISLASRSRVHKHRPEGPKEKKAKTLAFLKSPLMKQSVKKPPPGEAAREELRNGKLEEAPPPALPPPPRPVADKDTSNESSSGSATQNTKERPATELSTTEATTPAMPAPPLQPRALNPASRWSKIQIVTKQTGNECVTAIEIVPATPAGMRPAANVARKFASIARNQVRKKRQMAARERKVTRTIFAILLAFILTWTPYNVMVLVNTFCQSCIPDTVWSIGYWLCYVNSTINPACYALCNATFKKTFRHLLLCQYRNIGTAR
How it was run: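 IC50 reflects inhibition of an EC80 acetylcholine calcium response, fitted by four-parameter logistic equation. Fluo-4-loaded M4/Gqi5 CHO-K1 cells received compound (10-point, 1:3 series) 2 s into the FDSS read, then EC20 acetylcholine at 143 s and EC80 at 268 s.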

[1] = test system: haloperidol-induced catalepsy; conditions: cited from earlier work

Structure (SMILES) | remaining activity at 30 µM (Human M4) [%] | IC50 (Human M4) [nM] | reduction of catalepsy induced by haloperidol ([1]; M4KO mice) | reversal of catalepsy induced by haloperidol ([1]; WT mice)
[2H]C([2H])(C1CCOCC1)N1C[C@H]2C[C@H](Nc3nnc(-c4ccc5c(cnn5C)c4)cc3C(F)(F)F)C[C@H]2C1 [Example 144, (3aR,5s,6aS)-N-(6-(1-methyl-1H-indazol-5-yl)-4-(trifluoromethyl)pyridazin-3-yl)-2-((tetrahydro-2H-pyran-4-yl)methyl)octahydro-cyclopenta[c]pyrrol-5-amine] | 3 | 71.3 |  | 
N#Cc1cc(-c2cc(F)ccc2Cl)nnc1N[C@H]1C[C@@H]2CN(CC3CCOCC3)C[C@@H]2C1 [Example 145, 6-(2-chloro-5-fluorophenyl)-3-(((3aR,5s,6aS)-2-((tetrahydro-2H-pyran-4-yl)methyl)octahydro-cyclopenta[c]pyrrol-5-yl)amino)pyridazine-4-carbonitrile] | 3 | 1.4 |  | 
Cc1ccc(F)cc1-c1cc(C#N)c(N[C@H]2C[C@@H]3CN(CC4CCOCC4)C[C@@H]3C2)nn1 [Example 146, 6-(5-fluoro-2-methylphenyl)-3-(((3aR,5s,6aS)-2-((tetrahydro-2H-pyran-4-yl)methyl)octahydro-cyclopenta[c]pyrrol-5-yl)amino)pyridazine-4-carbonitrile] | 6 | 15.6 |  | 
Cc1ccc(F)cc1-c1cc(C#N)c(N[C@H]2C[C@@H]3CN(C[C@@H]4CC5CCC4O5)C[C@@H]3C2)nn1 (stereo partly drawn) [Example 147, 3-(((3aR,5s,6aS)-2-(((2S)-7-oxabicyclo[2.2.1]heptan-2-yl)methyl)octahydro-cyclopenta[c]pyrrol-5-yl)amino)-6-(5-fluoro-2-methylphenyl)pyridazine-4-carbonitrile] | 5 | 0.8 |  | 
Cc1ccc(F)cc1-c1cc(C#N)c(N[C@H]2C[C@@H]3CN(C[C@H]4CC5CCC4O5)C[C@@H]3C2)nn1 (stereo partly drawn) [Example 148, 3-(((3aR,5s,6aS)-2-(((2R)-7-oxabicyclo[2.2.1]heptan-2-yl)methyl)octahydro-cyclopenta[c]pyrrol-5-yl)amino)-6-(5-fluoro-2-methylphenyl)pyridazine-4-carbonitrile] | 2 | 1.1 |  | 
Cc1ccc(F)cc1-c1cc(C#N)c(N[C@H]2C[C@@H]3CN(C[C@H]4COCCO4)C[C@@H]3C2)nn1 [Example 149, 3-(((3aR,5s,6aS)-2-(((S)-1,4-dioxan-2-yl)methyl)octahydro-cyclopenta[c]pyrrol-5-yl)amino)-6-(5-fluoro-2-methylphenyl)pyridazine-4-carbonitrile] | 2 | 0.4 |  | 
Cc1ccc(F)cc1-c1cc(C#N)c(N[C@H]2C[C@@H]3CN(C[C@@H]4COCCO4)C[C@@H]3C2)nn1 [Example 150, 3-(((3aR,5s,6aS)-2-(((R)-1,4-dioxan-2-yl)methyl)octahydro-cyclopenta[c]pyrrol-5-yl)amino)-6-(5-fluoro-2-methylphenyl)pyridazine-4-carbonitrile] | 3 | 30.5 |  | 
Cc1ccc(F)cc1-c1cc(C#N)c(N[C@H]2C[C@@H]3CN(C[C@@H]4CCOC4)C[C@@H]3C2)nn1 [Example 151, 6-(5-fluoro-2-methylphenyl)-3-(((3aR,5s,6aS)-2-(((S)-tetrahydrofuran-3-yl)methyl)octahydro-cyclopenta[c]pyrrol-5-yl)amino)pyridazine-4-carbonitrile] | 7 | 105 |  | 
Cc1ccc(F)cc1-c1cc(C#N)c(N[C@H]2C[C@@H]3CN(C[C@H]4CCOC4)C[C@@H]3C2)nn1 [Example 152, 6-(5-fluoro-2-methylphenyl)-3-(((3aR,5s,6aS)-2-(((R)-tetrahydrofuran-3-yl)methyl)octahydro-cyclopenta[c]pyrrol-5-yl)amino)pyridazine-4-carbonitrile] | 6 | 14.9 |  | 
Cn1cc2cc(-c3cc(C#N)c(N[C@H]4C[C@@H]5CN(CC6CCOCC6)C[C@@H]5C4)nn3)ccc2n1 [Example 153, 6-(2-methyl-2H-indazol-5-yl)-3-(((3aR,5s,6aS)-2-((tetrahydro-2H-pyran-4-yl)methyl)octahydro-cyclopenta[c]pyrrol-5-yl)amino)pyridazine-4-carbonitrile] | 11 | 9.7 |  | 
Cn1cc2cc(-c3cc(C#N)c(N[C@H]4C[C@@H]5CN(C[C@@H]6CCOC6)C[C@@H]5C4)nn3)ccc2n1 [Example 154, 6-(2-methyl-2H-indazol-5-yl)-3-(((3aR,5s,6aS)-2-(((S)-tetrahydrofuran-3-yl)methyl)octahydro-cyclopenta[c]pyrrol-5-yl)amino)pyridazine-4-carbonitrile] | 15 | 87.8 |  | 
Cn1cc2cc(-c3cc(C#N)c(N[C@H]4C[C@@H]5CN(C[C@H]6CCOC6)C[C@@H]5C4)nn3)ccc2n1 [Example 155, 6-(2-methyl-2H-indazol-5-yl)-3-(((3aR,5s,6aS)-2-(((R)-tetrahydrofuran-3-yl)methyl)octahydro-cyclopenta[c]pyrrol-5-yl)amino)pyridazine-4-carbonitrile] | 5 | 103 |  | 
Cn1cc2cc(-c3cc(C#N)c(N[C@H]4C[C@@H]5CN(C[C@H]6COCCO6)C[C@@H]5C4)nn3)ccc2n1 [Example 156, 3-(((3aR,5s,6aS)-2-(((S)-1,4-dioxan-2-yl)methyl)octahydro-cyclopenta[c]pyrrol-5-yl)amino)-6-(2-methyl-2H-indazol-5-yl)pyridazine-4-carbonitrile] | 12 | 10.1 |  | 
Cn1cc2cc(-c3cc(C#N)c(N[C@H]4C[C@@H]5CN(C[C@@H]6COCCO6)C[C@@H]5C4)nn3)ccc2n1 [Example 157, 3-(((3aR,5s,6aS)-2-(((R)-1,4-dioxan-2-yl)methyl)octahydro-cyclopenta[c]pyrrol-5-yl)amino)-6-(2-methyl-2H-indazol-5-yl)pyridazine-4-carbonitrile] | 5 | 54.9 |  | 
Cn1cc2cc(-c3cc(C#N)c(N[C@H]4C[C@@H]5CN(CC6(C#N)CC6)C[C@@H]5C4)nn3)ccc2n1 [Example 160, 3-(((3aR,5s,6aS)-2-((1-cyano-cyclopropyl)methyl)octahydro-cyclopenta[c]pyrrol-5-yl)amino)-6-(2-methyl-2H-indazol-5-yl)pyridazine-4-carbonitrile] | 6 | 688 |  | 
Cn1cc2cc(-c3cc(C#N)c(N[C@H]4C[C@@H]5CN(C[C@H]6CC7CCC6O7)C[C@@H]5C4)nn3)ccc2n1 (stereo partly drawn) [Example 161, 3-(((3aR,5s,6aS)-2-(((2R)-7-oxabicyclo[2.2.1]heptan-2-yl)methyl)octahydro-cyclopenta[c]pyrrol-5-yl)amino)-6-(2-methyl-2H-indazol-5-yl)pyridazine-4-carbonitrile] | 5 | 2 |  | 
Cc1ccc(F)cc1-c1cc(C(F)(F)F)c(N[C@H]2C[C@@H]3CN(CC4CCOCC4)C[C@@H]3C2)nn1 [compound 11] | 4 | 2.41 |  | 
CN1[C@@H]2C[C@@H](OC(=O)[C@H](CO)c3ccccc3)C[C@H]1[C@@H]1O[C@@H]12 [scopolamine] |  |  | ineffective | completely reversed
